From the supplement of paper PMC13207355

How the values were obtained:
Settings in all cases: exposure time: 72 h
[1] = test system: E28 (patient-derived glioblastoma stem cells of classical subtype); assay: surviving fraction (nuclei count normalised to DMSO); higher = more cells surviving (less toxic)
[2] = test system: FT3469 (normal neural stem cell line); assay: as above
[3] = test system: E34 (patient-derived glioblastoma stem cells of proneural subtype); assay: as above
[4] = test system: E21 (patient-derived glioblastoma stem cells of mesenchymal subtype); assay: as above
[5] = test system: E57 (patient-derived glioblastoma stem cells of mesenchymal subtype); assay: as above
[6] = test system: E31 (patient-derived glioblastoma stem cells of proneural subtype); assay: as above
[7] = test system: E13 (patient-derived glioblastoma stem cells of classical subtype); assay: as above
[8] = test system: E28; assay: phenotypic distance (Euclidean, principal components) from DMSO controls (arbitrary units); higher = stronger morphological change
[9] = test system: FT3469; assay: as above
[10] = test system: E34; assay: as above
[11] = test system: E21; assay: as above
[12] = test system: E57; assay: as above
[13] = test system: E31; assay: as above
[14] = test system: E13; assay: as above
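Wherever phenotypic distance (Euclidean, principal components) from DMSO controls is given: cell Painting imaging in 384-well plates, CellProfiler features reduced to at least 20 principal components, Euclidean distance versus same-plate DMSO vehicle wells (0.1% v/v), median over six images per well.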
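Wherever surviving fraction (nuclei count normalised to DMSO) is given: nuclei counted by high-content imaging of Hoechst-stained cells in laminin-coated 384-well plates, relative to 0.1% DMSO vehicle wells, with staurosporine as cell-death control.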

Nc1ncnc2c1c(-c1ccc(Oc3ccccc3)cc1)cn2C1CCCC1
Settings	phenotypic distance	surviving fraction
[1], 4.1 nM	–	1.07
[1], 12.3 nM	–	0.954
[1], 37 nM	–	0.988
[1], 111.1 nM	–	0.704
[1], 333.3 nM	–	1.2
[1], 1000 nM	–	0.86
[1], 3000 nM	–	0.854
[2], 4.1 nM	–	0.964
[2], 12.3 nM	–	1.04
[2], 37 nM	–	0.976
[2], 111.1 nM	–	0.901
[2], 333.3 nM	–	0.875
[2], 1000 nM	–	0.967
[2], 3000 nM	–	0.895
[3], 4.1 nM	–	1.23
[3], 12.3 nM	–	0.986
[3], 37 nM	–	1.18
[3], 111.1 nM	–	1.03
[3], 333.3 nM	–	0.93
[3], 1000 nM	–	0.958
[3], 3000 nM	–	0.916
[4], 4.1 nM	–	0.864
[4], 12.3 nM	–	1.05
[4], 37 nM	–	1.03
[4], 111.1 nM	–	0.984
[4], 333.3 nM	–	0.967
[4], 1000 nM	–	1.01
[4], 3000 nM	–	0.85
[5], 4.1 nM	–	0.986
[5], 12.3 nM	–	1.06
[5], 37 nM	–	1.08
[5], 111.1 nM	–	1.06
[5], 333.3 nM	–	1.03
[5], 1000 nM	–	0.942
[5], 3000 nM	–	0.951
[6], 4.1 nM	–	1.06
[6], 12.3 nM	–	1.07
[6], 37 nM	–	0.999
[6], 111.1 nM	–	0.95
[6], 333.3 nM	–	0.97
[6], 1000 nM	–	0.936
[6], 3000 nM	–	0.884
[7], 4.1 nM	–	0.996
[7], 12.3 nM	–	1.07
[7], 37 nM	–	0.893
[7], 111.1 nM	–	0.884
[7], 333.3 nM	–	1.02
[7], 1000 nM	–	0.997
[7], 3000 nM	–	0.855
[8], 4.1 nM	0.587	–
[8], 12.3 nM	0.603	–
[8], 37 nM	0.442	–
[8], 111.1 nM	0.847	–
[8], 333.3 nM	0.677	–
[8], 1000 nM	0.737	–
[8], 3000 nM	0.765	–
[9], 4.1 nM	0.487	–
[9], 12.3 nM	1.13	–
[9], 37 nM	0.764	–
[9], 111.1 nM	0.833	–
[9], 333.3 nM	1.17	–
[9], 1000 nM	0.824	–
[9], 3000 nM	0.929	–
[10], 4.1 nM	0.654	–
[10], 12.3 nM	0.927	–
[10], 37 nM	0.674	–
[10], 111.1 nM	0.841	–
[10], 333.3 nM	0.534	–
[10], 1000 nM	0.71	–
[10], 3000 nM	0.746	–
[11], 4.1 nM	0.617	–
[11], 12.3 nM	0.6	–
[11], 37 nM	0.721	–
[11], 111.1 nM	0.773	–
[11], 333.3 nM	0.934	–
[11], 1000 nM	1.32	–
[11], 3000 nM	0.949	–
[12], 4.1 nM	0.461	–
[12], 12.3 nM	1.24	–
[12], 37 nM	1	–
[12], 111.1 nM	1.29	–
[12], 333.3 nM	0.478	–
[12], 1000 nM	0.867	–
[12], 3000 nM	0.813	–
[13], 4.1 nM	0.613	–
[13], 12.3 nM	0.704	–
[13], 37 nM	0.739	–
[13], 111.1 nM	0.965	–
[13], 333.3 nM	0.777	–
[13], 1000 nM	1.23	–
[13], 3000 nM	0.466	–
[14], 4.1 nM	0.425	–
[14], 12.3 nM	1.04	–
[14], 37 nM	0.606	–
[14], 111.1 nM	0.653	–
[14], 333.3 nM	0.532	–
[14], 1000 nM	0.572	–
[14], 3000 nM	0.738	–

CC(C)(Oc1ccc(C2CC2(Cl)Cl)cc1)C(=O)O (stereo unspecified) [Ciprofibrate]
Settings	phenotypic distance	surviving fraction
[1], 4.1 nM	–	1.06
[1], 12.3 nM	–	0.804
[1], 37 nM	–	1.11
[1], 111.1 nM	–	1.06
[1], 333.3 nM	–	1.12
[1], 1000 nM	–	1.02
[1], 3000 nM	–	1.31
[2], 4.1 nM	–	0.859
[2], 12.3 nM	–	0.891
[2], 37 nM	–	0.979
[2], 111.1 nM	–	0.92
[2], 333.3 nM	–	0.926
[2], 1000 nM	–	0.886
[2], 3000 nM	–	0.947
[3], 4.1 nM	–	1.07
[3], 12.3 nM	–	0.868
[3], 37 nM	–	0.894
[3], 111.1 nM	–	0.945
[3], 333.3 nM	–	0.986
[3], 1000 nM	–	0.988
[3], 3000 nM	–	1.08
[4], 4.1 nM	–	0.982
[4], 12.3 nM	–	0.945
[4], 37 nM	–	0.898
[4], 111.1 nM	–	0.962
[4], 333.3 nM	–	0.951
[4], 1000 nM	–	1.01
[4], 3000 nM	–	0.986
[5], 4.1 nM	–	0.918
[5], 12.3 nM	–	1.04
[5], 37 nM	–	0.934
[5], 111.1 nM	–	0.991
[5], 333.3 nM	–	1.03
[5], 1000 nM	–	0.983
[5], 3000 nM	–	1.06
[6], 4.1 nM	–	1.18
[6], 12.3 nM	–	0.902
[6], 37 nM	–	0.955
[6], 111.1 nM	–	0.771
[6], 333.3 nM	–	1.06
[6], 1000 nM	–	0.889
[6], 3000 nM	–	1.06
[7], 4.1 nM	–	0.885
[7], 12.3 nM	–	0.896
[7], 37 nM	–	1.05
[7], 111.1 nM	–	0.961
[7], 333.3 nM	–	1.07
[7], 1000 nM	–	1.13
[7], 3000 nM	–	1
[8], 4.1 nM	1.01	–
[8], 12.3 nM	0.813	–
[8], 37 nM	0.864	–
[8], 111.1 nM	0.823	–
[8], 333.3 nM	0.782	–
[8], 1000 nM	0.776	–
[8], 3000 nM	0.735	–
[9], 4.1 nM	0.922	–
[9], 12.3 nM	0.62	–
[9], 37 nM	0.718	–
[9], 111.1 nM	0.814	–
[9], 333.3 nM	0.871	–
[9], 1000 nM	0.441	–
[9], 3000 nM	0.507	–
[10], 4.1 nM	0.978	–
[10], 12.3 nM	0.753	–
[10], 37 nM	0.669	–
[10], 111.1 nM	0.8	–
[10], 333.3 nM	0.886	–
[10], 1000 nM	0.675	–
[10], 3000 nM	1.09	–
[11], 4.1 nM	1.13	–
[11], 12.3 nM	1.12	–
[11], 37 nM	1.06	–
[11], 111.1 nM	0.721	–
[11], 333.3 nM	0.996	–
[11], 1000 nM	0.59	–
[11], 3000 nM	0.683	–
[12], 4.1 nM	0.79	–
[12], 12.3 nM	0.645	–
[12], 37 nM	0.985	–
[12], 111.1 nM	0.544	–
[12], 333.3 nM	0.513	–
[12], 1000 nM	5.6	–
[12], 3000 nM	0.728	–
[13], 4.1 nM	0.865	–
[13], 12.3 nM	0.469	–
[13], 37 nM	0.691	–
[13], 111.1 nM	0.704	–
[13], 333.3 nM	0.816	–
[13], 1000 nM	0.949	–
[13], 3000 nM	0.985	–
[14], 4.1 nM	0.888	–
[14], 12.3 nM	0.449	–
[14], 37 nM	0.462	–
[14], 111.1 nM	0.363	–
[14], 333.3 nM	0.62	–
[14], 1000 nM	0.655	–
[14], 3000 nM	0.745	–
